ChEMBL document CHEMBL4613209, “Quinolone hybrids and their anti-cancer activities: An overview” (Eur J Med Chem, 2019)

Experiments:
Format in all cases: functional, cell-based
Hep 3B2 [1] = experiment: Cytotoxicity against human Hep3B cells assessed as reduction in cell viability by MTT assay
L1210 [2] = experiment: Cytotoxicity against mouse L1210 cells assessed as reduction in cell viability by MTT assay
SMMC-7721 [3] = experiment: Cytotoxicity against human SMMC7721 cells assessed as reduction in cell viability by MTT assay
HL-60 [4] = experiment: Cytotoxicity against human HL60 cells assessed as reduction in cell viability by MTT assay
CAPAN-1 = experiment: Cytotoxicity against human Capan1 cells assessed as reduction in cell viability by MTT assay
L1210 [5] = experiment: Antiproliferative activity against mouse L1210 cells after 24 to 72 hrs by MTT assay
SMMC-7721 [6] = experiment: Antiproliferative activity against human SMMC7721 cells after 24 to 72 hrs by MTT assay
HL-60 [7] = experiment: Antiproliferative activity against human HL60 cells after 24 to 72 hrs by MTT assay
Hep 3B2 [8] = experiment: Antiproliferative activity against human Hep3B cells after 24 to 72 hrs by MTT assay

SMILES	IC50 (L1210 [5]) [µM]	IC50 (SMMC-7721 [6]) [µM]	IC50 (HL-60 [7]) [µM]	IC50 (Hep 3B2 [1]) [µM]	IC50 (L1210 [2]) [µM]	IC50 (SMMC-7721 [3]) [µM]	IC50 (HL-60 [4]) [µM]	IC50 (CAPAN-1) [µM]	IC50 (Hep 3B2 [8]) [µM]
CCn1cc(-c2nc(SCc3nnc(-c4ccccc4)o3)n(CN(C)C)n2)c(=O)c2cc(F)c(N3CCN(C)CC3)cc21	–	–	–	1.5 to 24.5	1.5 to 24.5	1.5 to 24.5	1.5 to 24.5	1.5 to 24.5	–
CCn1cc(-c2nnc(SCc3nnc(-c4ccc(F)cc4)o3)[nH]2)c(=O)c2cc(F)c(N3CCN(C)CC3)cc21	–	–	–	3.8 to 35.2	3.8 to 35.2	3.8 to 35.2	3.8 to 35.2	3.8 to 35.2	–
COc1ccc(/C=N/Nc2nnc(-c3cn4c5c(c(N6CCN(C)CC6)c(F)cc5c3=O)OCC4C)[nH]2)cc1 (configuration not stated)	1.4 to 52.3	1.4 to 52.3	1.4 to 52.3	–	–	–	–	–	1.4 to 52.3
CCn1cc(-c2nc(SCc3nnc(-c4ccccc4OC)o3)n(CN(C)C)n2)c(=O)c2cc(F)c(N3CCN(C)CC3)cc21	–	–	–	1.5 to 24.5	1.5 to 24.5	1.5 to 24.5	1.5 to 24.5	1.5 to 24.5	–
CCn1cc(-c2nc(SCc3nnc(-c4cccc(C)c4)o3)n(CN(C)C)n2)c(=O)c2cc(F)c(N3CCN(C)CC3)cc21	–	–	–	1.5 to 24.5	1.5 to 24.5	1.5 to 24.5	1.5 to 24.5	1.5 to 24.5	–
CCn1cc(-c2nnc(SCc3nnc(-c4ccccc4)o3)[nH]2)c(=O)c2cc(F)c(N3CCN(C)CC3)cc21	–	–	–	3.8 to 35.2	3.8 to 35.2	3.8 to 35.2	3.8 to 35.2	3.8 to 35.2	–
CC1COc2c(N3CCN(C)CC3)c(F)cc3c(=O)c(-c4nnc(SCC(=O)N/N=C/c5ccccc5)[nH]4)cn1c23 (configuration not stated)	1.4 to 52.3	1.4 to 52.3	1.4 to 52.3	–	–	–	–	–	1.4 to 52.3
CC1COc2c(N3CCN(C)CC3)c(F)cc3c(=O)c(-c4nnc(SCC(=O)N/N=C/c5ccc(Cl)cc5)[nH]4)cn1c23 (configuration not stated)	1.4 to 52.3	1.4 to 52.3	1.4 to 52.3	–	–	–	–	–	1.4 to 52.3
CC1COc2c(N3CCN(C)CC3)c(F)cc3c(=O)c(-c4nnc(SCC(=O)N/N=C/c5ccc([N+](=O)[O-])c6c5OCO6)[nH]4)cn1c23 (configuration not stated)	1.4 to 52.3	1.4 to 52.3	1.4 to 52.3	–	–	–	–	–	1.4 to 52.3
CCn1cc(-c2nnc(SCc3nnc(-c4cccc(C)c4)o3)[nH]2)c(=O)c2cc(F)c(N3CCN(C)CC3)cc21	–	–	–	3.8 to 35.2	3.8 to 35.2	3.8 to 35.2	3.8 to 35.2	3.8 to 35.2	–
CC1COc2c(N3CCN(C)CC3)c(F)cc3c(=O)c(-c4nnc(SCC(=O)N/N=C/c5ccc(F)cc5)[nH]4)cn1c23 (configuration not stated)	1.4 to 52.3	1.4 to 52.3	1.4 to 52.3	–	–	–	–	–	1.4 to 52.3
CCn1cc(-c2nnc(SCc3nnc(-c4ccc(C)cc4)o3)[nH]2)c(=O)c2cc(F)c(N3CCN(C)CC3)cc21	–	–	–	3.8 to 35.2	3.8 to 35.2	3.8 to 35.2	3.8 to 35.2	3.8 to 35.2	–
CCn1cc(-c2nc(SCc3nnc(-c4ccc(C)cc4)o3)n(CN(C)C)n2)c(=O)c2cc(F)c(N3CCN(C)CC3)cc21	–	–	–	1.5 to 24.5	1.5 to 24.5	1.5 to 24.5	1.5 to 24.5	1.5 to 24.5	–

The next lines start with results.

IC50 (L1210 [5]) [µM]	IC50 (SMMC-7721 [6]) [µM]	IC50 (HL-60 [7]) [µM]	SMILES	IC50 (Hep 3B2 [1]) [µM]	IC50 (L1210 [2]) [µM]	IC50 (SMMC-7721 [3]) [µM]	IC50 (HL-60 [4]) [µM]	IC50 (CAPAN-1) [µM]	IC50 (Hep 3B2 [8]) [µM]
1.4 to 52.3	1.4 to 52.3	1.4 to 52.3	CCn1cc(-c2nnc(SCC(=O)N/N=C/c3ccccc3O)o2)c(=O)c2cc(F)c(N3CCN(C)CC3)cc21	–	–	–	–	–	1.4 to 52.3
1.4 to 52.3	1.4 to 52.3	1.4 to 52.3	CCn1cc(-c2nnc(SCC(=O)N/N=C/c3ccccc3C(=O)O)o2)c(=O)c2cc(F)c(N3CCN(C)CC3)cc21	–	–	–	–	–	1.4 to 52.3
1.4 to 52.3	1.4 to 52.3	1.4 to 52.3	CCn1cc(-c2nnc(SCC(=O)N/N=C/c3ccc4c(c3)OCO4)o2)c(=O)c2cc(F)c(N3CCN(C)CC3)cc21	–	–	–	–	–	1.4 to 52.3
1.4 to 52.3	1.4 to 52.3	1.4 to 52.3	CCn1cc(-c2nnc(SCC(=O)N/N=C/c3ccccc3OC)o2)c(=O)c2cc(F)c(N3CCN(C)CC3)cc21	–	–	–	–	–	1.4 to 52.3
1.4 to 52.3	1.4 to 52.3	1.4 to 52.3	CCn1cc(-c2nnc(SCC(=O)N/N=C/c3ccc(Cl)cc3)o2)c(=O)c2cc(F)c(N3CCN(C)CC3)cc21	–	–	–	–	–	1.4 to 52.3
1.4 to 52.3	1.4 to 52.3	1.4 to 52.3	CCn1cc(-c2nnc(SCC(=O)N/N=C/c3cc(OC)c(OC)c(OC)c3)o2)c(=O)c2cc(F)c(N3CCN(C)CC3)cc21	–	–	–	–	–	1.4 to 52.3
1.4 to 52.3	1.4 to 52.3	1.4 to 52.3	CCn1cc(-c2nnc(SCC(=O)N/N=C/c3ccc(C(=O)O)cc3)o2)c(=O)c2cc(F)c(N3CCN(C)CC3)cc21	–	–	–	–	–	1.4 to 52.3
1.4 to 52.3	1.4 to 52.3	1.4 to 52.3	CCn1cc(-c2nnc(SCC(=O)N/N=C/c3ccc(C#N)cc3)o2)c(=O)c2cc(F)c(N3CCN(C)CC3)cc21	–	–	–	–	–	1.4 to 52.3
